In patent US20130281491A1 (priority 2010, published 2013):

Test: Forced degradation of methadone hydrochloride solutions (HPLC)
Settings: 1M hydrochloric acid or 0.1M sodium hydroxide, 25° C. for a week

CCC(=O)C(CC(C)N(C)C)(c1ccccc1)c1ccccc1 (stereo not shown) [methadone]
Stability with acids and bases: no detected degradation
